Source: patent US20110144159A1, “ETHER BENZYLIDENE PIPERIDINE ARYL CARBOXAMIDE COMPOUNDS USEFUL AS FAAH INHIBITORS” (Pfizer Inc, priority 2008, published 2011)

Target: T1, Human FAAH (Homo sapiens, UniProt O00519)
T1 construct: made in house
T1 sequence (O00519 32-579 limits assumed): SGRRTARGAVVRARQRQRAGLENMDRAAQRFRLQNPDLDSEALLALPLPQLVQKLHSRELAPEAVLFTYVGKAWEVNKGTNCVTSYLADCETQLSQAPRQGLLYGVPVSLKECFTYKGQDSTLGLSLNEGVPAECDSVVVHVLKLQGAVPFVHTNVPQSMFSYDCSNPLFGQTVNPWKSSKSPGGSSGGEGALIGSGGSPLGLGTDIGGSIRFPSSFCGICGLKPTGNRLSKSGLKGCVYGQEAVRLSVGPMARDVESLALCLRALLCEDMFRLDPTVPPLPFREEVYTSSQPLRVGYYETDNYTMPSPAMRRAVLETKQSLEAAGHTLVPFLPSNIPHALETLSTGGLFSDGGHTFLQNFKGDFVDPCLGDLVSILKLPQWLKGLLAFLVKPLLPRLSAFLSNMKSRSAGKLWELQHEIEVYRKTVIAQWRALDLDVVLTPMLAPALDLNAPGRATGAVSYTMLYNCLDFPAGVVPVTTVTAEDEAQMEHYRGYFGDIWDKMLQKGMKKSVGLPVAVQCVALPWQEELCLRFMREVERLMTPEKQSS
Experiment: FAAH assay (glutamate dehydrogenase-coupled, oleamide substrate, absorbance at 340 nm)
Type: biochemical
Conditions: irreversible inhibition potency
Description: A FAAH assay may be carried out in 384-well clear polystyrene plates in a total volume of 50 μl per well. All percents are by volume. To each well was placed the reaction mixture (40 μl) containing 1-4 nM FAAH, 50 mM NaPi, pH 7.4, 3 mM α-ketoglutarate, 0.15 mM NADH, 7.5 U/ml glutamate dehydrogenase, 2 mM ADP, 1 mM EDTA, and 0.1% Triton X-100 (The concentration shown for each component was the final concentration in the assay). To this mixture was added 5 μl of a compound of Examples 1 to 20 at various concentrations prepared in 50% DMSO (or 5 μl 50% DMSO for controls). This was immediately followed by the addition of 5 μl oleamide (500 μM) dissolved in 75% EtOH/25% DMSO and the reaction mixture was mixed for 1.5 min. The final concentrations of DMSO and EtOH in the assay are each 7.5%. The reactions was then incubated at 30° C. and the absorbance at 340 nm was collected over a period of 90 min with readings taken in 30-second intervals using SpectraMax Plus^384 Microplate Spectrophotometer (Molecular Devices, Sunnyvale, Calif.). Human FAAH used in the assay was prepared as described in the patent application WO 2006/067613. The purity of the enzyme used was greater than 98% based on an analysis by SDS-polyacrylamide gel electrophoresis followed by Coomassie Blue staining.
Initial velocity data (V) is obtained from the slopes of the initial progressive curves. They are plotted as a function of substrate concentration and fit to the Michaelis-Menten equation (1) using Prism (GraphPad Software, Inc., San Diego, Calif.) software to obtain Km and Vmax values.
To obtain potencies of irreversible inhibitors, progressive curves consistent with first order inhibition kinetics (two-step irreversible inhibition mechanism) are fit to equation (2) by nonlinear least squares regressions to determine kobs values at each inhibitor concentration, where [P]t is the absorbance at time t, V0 is a constant related to the steady state rate of the uninhibited reaction, and kobs is the first order rate constant for enzyme inactivation. The inhibitor dissociation constant (Ki) and the first order rate
constant of enzyme inactivation at infinite inhibitor concentration (kinact) are then obtained by fitting the kobs vs. [I] curves to equation (3).

Structure (SMILES)	hFAAH KInact/K [M⁻¹ s⁻¹]
CCCC(C)Oc1cccc(C=C2CCN(C(=O)Nc3cccnn3)CC2)c1 (centres unmarked) [Example 30, 4-[3-(1-methylbutoxy)benzylidene]-N-pyridazin-3-ylpiperdine-1-carboxamide]	3440
CCCC(C)Oc1cccc(C=C2CCN(C(=O)Nc3cccnn3)CC2)c1 (centres unmarked) [Example 31, 4-[3-(1-methylbutoxy)benzylidene]-N-pyridazin-3-ylpiperidine-1-carboxamide]	7450
CC1CCCC(Oc2cccc(C=C3CCN(C(=O)Nc4cccnc4)CC3)c2)C1 (centres unmarked) [Example 32, 4-{3-[(3-methylcyclohexyl)oxy]benzylidene}-N-pyridin-3-ylpiperidine-1-carboxamide]	712
CCCC(C)Oc1cccc(C=C2CCN(C(=O)Nc3cccnc3)CC2)c1 (centres unmarked) [Example 34, 4-[3-(1-methylbutoxy)benzylidene]-N-pyridin-3-ylpiperidine-1-carboxamide]	1810
CCCC(C)Oc1cccc(C=C2CCN(C(=O)Nc3cccnc3)CC2)c1 (centres unmarked) [Example 35, 4-[3-(1-methylbutoxy)benzylidene]-N-pyridin-3-ylpiperidine-1-carboxamide]	2680
CC1CCC(Oc2cccc(C=C3CCN(C(=O)Nc4cccnc4)CC3)c2)CC1 (centres unmarked) [Example 36, 4-{3-[(4-methylcyclohexyl)oxy]benzylidene}-N-pyridin-3-ylpiperidine-1-carboxamide]	992
CCCC(CC)Oc1cccc(C=C2CCN(C(=O)Nc3cccnn3)CC2)c1 (centres unmarked) [Example 41, 4-[3-(1-ethylbutoxy)benzylidene]-N-pyridazin-3-ylpiperidine-1-carboxamide]	1800
CCCC(CC)Oc1cccc(C=C2CCN(C(=O)Nc3cccnc3)CC2)c1 (centres unmarked) [Example 42, 4-[3-(1-ethylbutoxy)benzylidene]-N-pyridin-3-ylpiperidine-1-carboxamide]	551
CC(C)(C)CCOc1cccc(C=C2CCN(C(=O)Nc3cccnn3)CC2)c1 [Example 48, 4-[3-(3,3-dimethylbutoxy)benzylidene]-N-pyridazin-3-ylpiperidine-1-carboxamide]	2580
COC(C)(C)CCOc1cccc(C=C2CCN(C(=O)Nc3cccnn3)CC2)c1 [Example 49, 4-[3-(3-methoxy-3-methylbutoxy)benzylidene]-N-pyridazin-3-ylpiperidine-1-carboxamide]	1290
CCC(C)COc1cccc(C=C2CCN(C(=O)Nc3cccnn3)CC2)c1 (centres unmarked) [Example 50, 4-[3-(2-methylbutoxy)benzylidene]-N-pyridazin-3-ylpiperidine-1-carboxamide]	4500
CCCCOc1cccc(C=C2CCN(C(=O)Nc3cccnn3)CC2)c1 [Example 51, 4-(3-butoxybenzylidene)-N-pyridazin-3-ylpiperidine-1-carboxamide]	8350
CO[C@@H](COc1cccc(C=C2CCN(C(=O)Nc3cccnn3)CC2)c1)c1ccccc1 [Example 58, 4-{3-[(2R)-2-methoxy-2-phenylethoxy]benzylidene}-N-pyridazin-3-ylpiperidine-1-carboxamide]	473

Further lines, results first:

hFAAH KInact/K [M⁻¹ s⁻¹]	Structure (SMILES)
1730	O=C(Nc1cccnn1)N1CCC(=Cc2cccc(OC3CC3)c2)CC1 [Example 33, 4-[3-(cyclopropyloxy)benzylidene]-N-pyridazin-3-ylpiperidine-1-carboxamide]
1380	CC(C)Oc1cccc(C=C2CCN(C(=O)Nc3cccnc3)CC2)c1 [Example 37, 4-(3-isopropoxybenzylidene)-N-pyridin-3-ylpiperidine-1-carboxamide]
1090	CC1CCCC(Oc2cccc(C=C3CCN(C(=O)Nc4cccnn4)CC3)c2)C1 (centres unmarked) [Example 38, 4-{3-[(3-methylcyclohexyl)oxy]benzylidene}-N-pyridazin-3-ylpiperidine-1-carboxamide]
2090	CC1CCC(Oc2cccc(C=C3CCN(C(=O)Nc4cccnn4)CC3)c2)CC1 (centres unmarked) [Example 39, 4-{3-[(4-methylcyclohexyl)oxy]benzylidene}-N-pyridazin-3-ylpiperidine-1-carboxamide]
2350	CC(C)Oc1cccc(C=C2CCN(C(=O)Nc3cccnn3)CC2)c1 [Example 40, 4-(3-isopropoxybenzylidene)-N-pyridazin-3-ylpiperidine-1-carboxamide]
738	O=C(Nc1cccnc1)N1CCC(=Cc2cccc(OC3CCOCC3)c2)CC1 [Example 43, N-pyridin-3-yl-4-[3-(tetrahydro-2H-pyran-4-yloxy)benzylidene]piperidine-1-carboxamide]
563	O=C(Nc1cccnn1)N1CCC(=Cc2cccc(OC3CCOCC3)c2)CC1 [Example 44, N-pyridazin-3-yl-4-[3-(tetrahydro-2H-pyran-4-yloxy)benzylidene]piperidine-1-carboxamide]
573	O=C(Nc1cccnn1)N1CCC(=Cc2cccc(OCC3CCCO3)c2)CC1 (centres unmarked) [Example 45, N-pyridazin-3-yl-4-[3-(tetrahydrofuran-2-ylmethoxy)benzylidene]piperidine-1-carboxamide]
11900	CC(C)OCCOc1cccc(C=C2CCN(C(=O)Nc3cccnn3)CC2)c1 [Example 47, 4-[3-(2-isopropoxyethoxy)benzylidene]-N-pyridazin-3-ylpiperidine-1-carboxamide]
31600	Cc1cccc(OCCOc2cccc(C=C3CCN(C(=O)Nc4cccnn4)CC3)c2)c1 [Example 52, 4-{3-[2-(3-methylphenoxy)ethoxy]benzylidene}-N-pyridazin-3-ylpiperidine-1-carboxamide]
1750	O=C(Nc1cccnn1)N1CCC(=Cc2cccc(OCC3CCOC3)c2)CC1 (centres unmarked) [Example 53, N-pyridazin-3-yl-4-[3-(tetrahydrofuran-3-ylmethoxy)benzylidene]piperidine-1-carboxamide]
1880	Cc1cc(COc2cccc(C=C3CCN(C(=O)Nc4cccnn4)CC3)c2)no1 [Example 54, 4-{3-[(5-methylisoxazol-3-yl)methoxy]benzylidene}-N-pyridazin-3-ylpiperidine-1-carboxamide]
35	CN1CCCCC1COc1cccc(C=C2CCN(C(=O)Nc3cccnn3)CC2)c1 (centres unmarked) [Example 55, 4-{3-[(1-methylpiperidin-2-yl)methoxy]benzylidene}-N-pyridazin-3-ylpiperidine-1-carboxamide]
149	COC(COc1cccc(C=C2CCN(C(=O)Nc3cccnn3)CC2)c1)c1ccccc1 (centres unmarked) [Example 56, 4-[3-(2-methoxy-2-phenylethoxy)benzylidene]-N-pyridazin-3-ylpiperidine-1-carboxamide]
16300	O=C(Nc1cccnn1)N1CCC(=Cc2cccc(OCC3CC=CCC3)c2)CC1 (centres unmarked) [Example 57, 4-[3-(cyclohex-3-en-1-ylmethoxy)benzylidene]-N-pyridazin-3-ylpiperidine-1-carboxamide]
2190	O=C(Nc1cccnn1)N1CCC(=Cc2cccc(OCCc3cnoc3)c2)CC1 [Example 60, 4-[3-(2-isoxazol-4-ylethoxy)benzylidene]-N-pyridazin-3-ylpiperidine-1-carboxamide]
